Data reported in patent publication US20250129070A1, “BIFUNCTIONAL ANDROGEN RECEPTOR COMPOUNDS” (priority 2023, published 2025).

Legend:
AR / CBP ternary complex = experiment: Ternary complex formation assay (sandwich ELISA, AR capture / CBP detection) in VCaP cell lysates; type: cell-based; conditions: 1.5 hours treatment, sandwich ELISA (AR capture, CBP or p300 detection)
How it was run: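 Anti-AR (AR 441)-coated plates capture AR from lysates of VCaP cells grown ≥3 days at 50K/well in 5% charcoal-stripped FBS, dosed with bifunctional for 1.5 h and lysed 30 min at 4 °C. Co-captured CBP/p300 is probed with rabbit mAb and HRP anti-rabbit, then QuantaRed fluorescence (570/585) is read at 0, 5 and 15 min.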

VCaP cells = experiment: VCaP growth inhibition assay; type: cell-based; conditions: 30 pM R1881, 9 days, CTG
How it was run: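 Growth read by CTG luminescence after 9-day exposure to compound (final 100 nM–10 fM, 1:5 steps) plus 30 pM R1881, in phenol red-free DMEM with 5% CSS. Cells pre-incubated 72 h before dosing; IC50 by nonlinear 4-parameter regression.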

SMILES | EC50 (AR / CBP ternary complex) [nM] | IC50 (VCaP cells) [nM]
CC(=O)N1CCc2c(c(N3CCCc4cc(-c5cnn(C)c5)c(C(F)F)cc43)nn2CCCOc2ncc(C(=O)NC3C(C)(C)C(Oc4ccc(C#N)c(Cl)c4)C3(C)C)cn2)C1 (stereo not drawn) [Compound 43, 2-[3-[5-acetyl-3-[7-(difluoromethyl)-6-(1-methylpyrazol-4-yl)-3,4-dihydro-2H-quinolin-1-yl]-6,7-dihydro-4H-pyrazolo[4,3-c]pyridin-1-yl]propoxy]-N-[3-(3-chloro-4-cyano-phenoxy)-2,2,4,4-tetramethyl-cyclobutyl]pyrimidine-5-carboxamide] | > 100 | > 100
CC(=O)N1CCc2c(c(N3CCCc4cc(-c5cnn(C)c5)c(C(F)F)cc43)nn2C2CCN(C3CC(Oc4ncc(C(=O)NC5C(C)(C)C(Oc6ccc(C#N)c(Cl)c6)C5(C)C)cn4)C3)CC2)C1 (stereo not drawn) [Compound 376, 2-[3-[4-[5-acetyl-3-[7-(difluoromethyl)-6-(1-methylpyrazol-4-yl)-3,4-dihydro-2H-quinolin-1-yl]-6,7-dihydro-4H-pyrazolo[4,3-c]pyridin-1-yl]-1-piperidyl]cyclobutoxy]-N-[3-(3-chloro-4-cyano-phenoxy)-2,2,4,4-tetramethyl-cyclobutyl]pyrimidine-5-carboxamide] | < 1 | 0.1 to 1
COC(=O)N1c2ccc3c(nc(Cc4ccccc4)n3[C@@H]3CCC[C@@H](C(=O)N4CCN(c5ncc(C(=O)NC6C(C)(C)C(Oc7ccc(C#N)c(Cl)c7)C6(C)C)cn5)CC4)C3)c2CC[C@@H]1C (stereo partly drawn) [Compound 127, methyl (7S)-2-benzyl-3-[(1R,3R)-3-[4-[5-[[3-(3-chloro-4-cyano-phenoxy)-2,2,4,4-tetramethyl-cyclobutyl]carbamoyl]pyrimidin-2-yl]piperazine-1-carbonyl]cyclohexyl]-7-methyl-8,9-dihydro-7H-imidazo[4,5-f]quinoline-6-carboxylate] | < 1 | ≤ 0.1
COc1cc(OC2C(C)(C)C(NC(=O)c3ccc(N4CCC(C5CCC(n6cc(-c7cc8cccc(-c9nn(C%10CCOCC%10)c%10c9CN(C(C)=O)CC%10)c8cn7)cn6)CC5)CC4)cc3)C2(C)C)ccc1C#N (stereo not drawn) [Compound 271, 4-[4-[4-[4-[8-(5-acetyl-1-tetrahydropyran-4-yl-6,7-dihydro-4H-pyrazolo[4,3-c]pyridin-3-yl)-3-isoquinolyl]pyrazol-1-yl]cyclohexyl]-1-piperidyl]-N-[3-(4-cyano-3-methoxy-phenoxy)-2,2,4,4-tetramethylcyclobutyl]benzamide] | < 1 | 0.1 to 1
Cn1c(=O)n(C)c2cc(N3CCCc4cc(-c5ccc(CCC6CCN(c7ncc(C(=O)NC8C(C)(C)C(Oc9ccc(C#N)c(Cl)c9)C8(C)C)cn7)CC6)nc5)c(C(F)F)cc43)ccc21 (stereo not drawn) [Compound 233, N-[3-(3-chloro-4-cyano-phenoxy)-2,2,4,4-tetramethyl-cyclobutyl]-2-[4-[2-[5-[7-(difluoromethyl)-1-(1,3-dimethyl-2-oxo-benzimidazol-5-yl)-3,4-dihydro-2H-quinolin-6-yl]-2-pyridyl]ethyl]-1-piperidyl]pyrimidine-5-carboxamide] | 1 to 10 | > 100
CC(=O)N1CCc2c(c(N3CCCc4cc(-c5cnn(C)c5)c(C(F)F)cc43)nn2C2CCN(C(=O)C3CCN(c4ccc5c(n4)CN(C4C(C)(C)C(Oc6ccc(C#N)c(Cl)c6)C4(C)C)C5=O)CC3)CC2)C1 (stereo not drawn) [Compound 299, 4-[3-[2-[4-[4-[5-acetyl-3-[7-(difluoromethyl)-6-(1-methylpyrazol-4-yl)-3,4-dihydro-2H-quinolin-1-yl]-6,7-dihydro-4H-pyrazolo[4,3-c]pyridin-1-yl]piperidine-1-carbonyl]-1-piperidyl]-5-oxo-7H-pyrrolo[3,4-b]pyridin-6-yl]-2,2,4,4-tetramethyl-cyclobutoxy]-2-chloro-benzonitrile] | < 1 | 0.1 to 1
CC(=O)N1CCc2c(c(Nc3ccc(-c4cnn(C)c4)cc3F)nn2C2CCN(C(=O)CC3CCN(c4ncc(C(=O)NC5C(C)(C)C(Oc6ccc(C#N)c(Cl)c6)C5(C)C)cn4)CC3)CC2)C1 (stereo not drawn) [Compound 178, 2-[4-[2-[4-[5-acetyl-3-[2-fluoro-4-(1-methylpyrazol-4-yl)anilino]-6,7-dihydro-4H-pyrazolo[4,3-c]pyridin-1-yl]-1-piperidyl]-2-oxo-ethyl]-1-piperidyl]-N-[3-(3-chloro-4-cyano-phenoxy)-2,2,4,4-tetramethyl-cyclobutyl]pyrimidine-5-carboxamide] | < 1 | 0.1 to 1
CC(=O)N1CCc2c(c(N3CCCc4cc(C#N)ccc43)nn2C2CC3(C2)CN(CC2CC4(C2)CN(c2ncc(C(=O)NC5C(C)(C)C(Oc6ccc(C#N)c(Cl)c6)C5(C)C)cn2)C4)C3)C1 (stereo not drawn) [Compound 221, 2-[6-[[6-[5-acetyl-3-(6-cyano-3,4-dihydro-2H-quinolin-1-yl)-6,7-dihydro-4H-pyrazolo[4,3-c]pyridin-1-yl]-2-azaspiro[3.3]heptan-2-yl]methyl]-2-azaspiro[3.3]heptan-2-yl]-N-[3-(3-chloro-4-cyano-phenoxy)-2,2,4,4-tetramethyl-cyclobutyl]pyrimidine-5-carboxamide] | 1 to 10 | 1 to 100
CC(=O)N1CCc2c(c(-c3cccc4cc(-c5cnn(CCC6CC7(C6)CN(c6ncc(C(=O)NC8C(C)(C)C(Oc9ccc(C#N)c(Cl)c9)C8(C)C)cn6)C7)c5)ncc34)nn2C2CCOCC2)C1 (stereo not drawn) [Compound 225, 2-[6-[2-[4-[8-(5-acetyl-1-tetrahydropyran-4-yl-6,7-dihydro-4H-pyrazolo[4,3-c]pyridin-3-yl)-3-isoquinolyl]pyrazol-1-yl]ethyl]-2-azaspiro[3.3]heptan-2-yl]-N-[3-(3-chloro-4-cyano-phenoxy)-2,2,4,4-tetramethyl-cyclobutyl]pyrimidine-5-carboxamide] | < 1 | 0.1 to 1

Other lines, results leading:

EC50 (AR / CBP ternary complex) [nM] | IC50 (VCaP cells) [nM] | SMILES
< 1 | 0.1 to 1 | COc1cc(OC2C(C)(C)C(NC(=O)c3ccc(N4CCC(N5CCC(n6nc(N7CCCc8cc(-c9cnn(C)c9)c(C(F)F)cc87)c7c6CCN(C(C)=O)C7)CC5)C(C)C4)cc3)C2(C)C)ccc1C#N (stereo not drawn) [Compound 304, 4-[4-[4-[5-acetyl-3-[7-(difluoromethyl)-6-(1-methylpyrazol-4-yl)-3,4-dihydro-2H-quinolin-1-yl]-6,7-dihydro-4H-pyrazolo[4,3-c]pyridin-1-yl]-1-piperidyl]-3-methyl-1-piperidyl]-N-[3-(4-cyano-3-methoxy-phenoxy)-2,2,4,4-tetramethyl-cyclobutyl]benzamide]
< 1 | 1 to 100 | CC(=O)N1CCc2c(c(-c3cccc4cc(-c5ccc(C(=O)NCCc6ncc(C(=O)NC7C(C)(C)C(Oc8ccc(C#N)c(Cl)c8)C7(C)C)cn6)nc5)ncc34)nn2C2CCOCC2)C1 (stereo not drawn) [Compound 78, 2-[2-[[5-[8-(5-acetyl-1-tetrahydropyran-4-yl-6,7-dihydro-4H-pyrazolo[4,3-c]pyridin-3-yl)-3-isoquinolyl]pyridine-2-carbonyl]amino]ethyl]-N-[3-(3-chloro-4-cyano-phenoxy)-2,2,4,4-tetramethyl-cyclobutyl]pyrimidine-5-carboxamide]
< 1 | > 100 | Cn1c(=O)sc2ccc(-c3cccc4cc(-c5ccc(CCC6CCN(c7ncc(C(=O)NC8C(C)(C)C(Oc9ccc(C#N)c(Cl)c9)C8(C)C)cn7)CC6)nc5)ncc34)cc21 (stereo not drawn) [Compound 235, N-[3-(3-chloro-4-cyano-phenoxy)-2,2,4,4-tetramethyl-cyclobutyl]-2-[4-[2-[5-[8-(3-methyl-2-oxo-1,3-benzothiazol-5-yl)-3-isoquinolyl]-2-pyridyl]ethyl]-1-piperidyl]pyrimidine-5-carboxamide]
< 1 | 0.1 to 1 | CC(=O)N1CCc2c(c(N3CCCc4cc(-c5cnn(C)c5)c(C)cc43)nn2C2CCN(CC3CCN(c4ncc(C(=O)NC5C(C)(C)C(Oc6ccc(C#N)c(Cl)c6)C5(C)C)cn4)CC3)CC2)C1 (stereo not drawn) [Compound 26, 2-[4-[[4-[5-acetyl-3-[7-methyl-6-(1-methylpyrazol-4-yl)-3,4-dihydro-2H-quinolin-1-yl]-6,7-dihydro-4H-pyrazolo[4,3-c]pyridin-1-yl]-1-piperidyl]methyl]-1-piperidyl]-N-[3-(3-chloro-4-cyano-phenoxy)-2,2,4,4-tetramethyl-cyclobutyl]pyrimidine-5-carboxamide]
< 1 | 0.1 to 1 | CC(=O)N1CCc2c(c(N3CCCc4cc(-c5cnn(C)c5)c(C)cc43)nn2C2CCN(CC3CCN(c4ncc(C(=O)NC5C(C)(C)C(Oc6ccc(C#N)c(C)c6C)C5(C)C)cn4)CC3(C)C)CC2)C1 (stereo not drawn) [Compound 465, 2-[4-[[4-[5-acetyl-3-[7-methyl-6-(1-methylpyrazol-4-yl)-3,4-dihydro-2H-quinolin-1-yl]-6,7-dihydro-4H-pyrazolo[4,3-c]pyridin-1-yl]-1-piperidyl]methyl]-3,3-dimethyl-1-piperidyl]-N-[3-(4-cyano-2,3-dimethyl-phenoxy)-2,2,4,4-tetramethyl-cyclobutyl]pyrimidine-5-carboxamide]
< 1 | ≤ 0.1 | CC(=O)N1CCc2c(c(N3CCCc4cc(-c5cnn(C)c5)c(C(F)F)cc43)nn2C2CCN(CCC3CCN(c4ncc(C(=O)NC5C(C)(C)C(Oc6ccc(C#N)c(Cl)c6)C5(C)C)cn4)CC3)CC2)C1 (stereo not drawn) [Compound 174, 2-[4-[2-[4-[5-acetyl-3-[7-(difluoromethyl)-6-(1-methylpyrazol-4-yl)-3,4-dihydro-2H-quinolin-1-yl]-6,7-dihydro-4H-pyrazolo[4,3-c]pyridin-1-yl]-1-piperidyl]ethyl]-1-piperidyl]-N-[3-(3-chloro-4-cyano-phenoxy)-2,2,4,4-tetramethyl-cyclobutyl]pyrimidine-5-carboxamide]
